Test results reported in ChEMBL document CHEMBL5729761, “Polycyclic compounds as allosteric SHP2 inhibitors” (2023).
pIC50: −log10 of the molar value.

Target: T1, Tyrosine-protein phosphatase non-receptor type 11 (Homo sapiens, UniProt Q06124)
T1 sequence (Q06124 whole entry): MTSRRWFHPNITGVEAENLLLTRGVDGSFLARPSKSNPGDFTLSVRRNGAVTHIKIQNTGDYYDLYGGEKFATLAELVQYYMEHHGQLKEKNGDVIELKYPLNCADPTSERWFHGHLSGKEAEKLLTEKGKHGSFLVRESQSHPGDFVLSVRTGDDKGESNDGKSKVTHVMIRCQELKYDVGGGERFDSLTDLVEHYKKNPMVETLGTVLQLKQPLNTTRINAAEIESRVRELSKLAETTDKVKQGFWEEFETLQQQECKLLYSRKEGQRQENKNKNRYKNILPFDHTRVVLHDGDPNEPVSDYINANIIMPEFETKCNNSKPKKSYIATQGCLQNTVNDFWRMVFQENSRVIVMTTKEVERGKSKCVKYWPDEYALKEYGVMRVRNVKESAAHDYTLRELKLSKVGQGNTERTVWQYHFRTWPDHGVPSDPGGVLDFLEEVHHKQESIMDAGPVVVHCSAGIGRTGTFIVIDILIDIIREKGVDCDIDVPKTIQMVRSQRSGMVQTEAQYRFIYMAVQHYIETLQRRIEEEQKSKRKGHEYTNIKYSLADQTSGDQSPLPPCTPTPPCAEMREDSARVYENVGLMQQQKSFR
Experiment: SHP2 Allosteric Inhibition Assay: The inhibition of SHP2 by compounds of the invention (concentrations varying from 0.00005-10 μM) was monitored using an assay in which 0.2 nM of SHP2 was incubated with 0.5 μM of Activating Peptide 1 (sequence: H2N LN(pY)IDLDLV(dPEG8)LST(pY)ASINFQK-amide) or Activating Peptide 2 (sequence: H2N-LN(pY)AQLWHA(dPEG8)LTI(pY)ATIRRF-amide). After 30-60-minutes incubation at 25° C., the surrogate substrate DiFMUP (Invitrogen, Cat #D6567) was added to the reaction and activity was determined by a kinetic read using a microplate reader (Envision, Perkin-Elmer or Spectramax M5, Molecular Devices). The excitation and emission wavelengths were 340 nm and 450 nm, respectively. Initial rates were determined from a linear fit of the data, and the inhibitor dose response curves were analyzed using normalized IC50 regression curve fitting with control based normalization.

- pIC50: > 7.30
Compound: Cc1nc(N2CCC3(CC2)CO[C@@H](C)[C@H]3N)n2ccnc2c1-c1ccc2nccnc2c1
